The text below walks through data of patent US9579314B2 (priority 2015, dated 2017).

For test [1], the target named is Human M3 receptor (Homo sapiens, UniProt P20309). The settings on record: read-out: M3 binding affinity.
The target of test [2] is Human β2 adrenoceptor (Homo sapiens, UniProt P07550). The settings on record: read-out: B2 binding affinity.
Human β2 adrenoceptor, sequence (P07550 whole entry): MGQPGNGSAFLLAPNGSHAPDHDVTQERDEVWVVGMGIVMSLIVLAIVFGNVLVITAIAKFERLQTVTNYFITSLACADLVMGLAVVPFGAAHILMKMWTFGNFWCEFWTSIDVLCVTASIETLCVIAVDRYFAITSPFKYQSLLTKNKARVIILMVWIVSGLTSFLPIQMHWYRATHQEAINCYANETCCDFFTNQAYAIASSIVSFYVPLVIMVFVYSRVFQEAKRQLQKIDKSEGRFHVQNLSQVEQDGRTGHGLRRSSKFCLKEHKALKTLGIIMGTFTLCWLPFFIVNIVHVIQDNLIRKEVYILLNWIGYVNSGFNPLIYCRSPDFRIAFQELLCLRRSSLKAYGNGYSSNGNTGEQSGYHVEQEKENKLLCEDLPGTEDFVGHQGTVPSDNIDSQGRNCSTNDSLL

Human M3 receptor, sequence (P20309 whole entry): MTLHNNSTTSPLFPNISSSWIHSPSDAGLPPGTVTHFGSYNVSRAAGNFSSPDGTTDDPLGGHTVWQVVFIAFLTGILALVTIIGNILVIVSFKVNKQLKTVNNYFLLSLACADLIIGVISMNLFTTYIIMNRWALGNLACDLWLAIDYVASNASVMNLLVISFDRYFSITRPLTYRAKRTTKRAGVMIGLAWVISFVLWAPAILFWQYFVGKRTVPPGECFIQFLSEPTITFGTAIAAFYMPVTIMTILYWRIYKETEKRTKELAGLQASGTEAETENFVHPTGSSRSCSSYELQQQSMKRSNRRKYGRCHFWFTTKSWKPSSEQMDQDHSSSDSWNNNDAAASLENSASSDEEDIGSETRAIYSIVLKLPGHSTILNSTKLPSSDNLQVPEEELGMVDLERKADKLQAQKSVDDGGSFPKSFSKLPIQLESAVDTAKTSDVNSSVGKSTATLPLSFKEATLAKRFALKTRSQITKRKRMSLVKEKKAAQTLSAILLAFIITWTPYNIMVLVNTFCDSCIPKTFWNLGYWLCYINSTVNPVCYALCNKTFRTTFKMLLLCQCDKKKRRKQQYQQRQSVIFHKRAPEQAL

On to `O=C(c1ccc(CCNC[C@H](O)c2ccc(O)c3[nH]c(=O)ccc23)cc1)N1CCN(C(=O)c2ccc(COc3cccc([C@](O)(C(=O)OCC4CCN(Cc5ccccc5)CC4)c4ccccc4)c3)cc2)CC1` [Compound 118, (1-benzylpiperidin-4-yl)methyl (S)-2-hydroxy-2-(3-((4-(4-(4-(2-(((R)-2-hydroxy-2-(8-hydroxy-2-oxo-1,2-dihydroquinolin-5-yl)ethyl)amino)ethyl)benzoyl)piperazine-1-carbonyl)benzyl)oxy)phenyl)-2-phenylacetate], for which the IC50 in test [1] was less than 0.3 nM; in test [2] it was 0.3 to 3 nM.

With `COc1cc(CNC[C@H](O)c2ccc(O)c3[nH]c(=O)ccc23)ccc1C(=O)NCc1ccc(COc2cccc([C@](O)(C(=O)OCC3CCN(Cc4ccccc4)CC3)c3ccccc3)c2)cc1` [Compound 42E, (1-benzylpiperidin-4-yl)methyl (S)-2-hydroxy-2-(3-((4-((4-((((R)-2-hydroxy-2-(8-hydroxy-2-oxo-1,2-dihydroquinolin-5-yl)ethyl)amino)methyl)-2-methoxybenzamido)methyl)benzyl)oxy)phenyl)-2-phenylacetate], the results for the IC50 in test [1] and in test [2] were 0.3 to 3 nM and less than 0.3 nM, respectively.

In the case of `O=C(N[C@H]1CCCN(C(=O)COc2cccc([C@](O)(C(=O)OCC3CCN(Cc4ccccc4)CC3)c3ccccc3)c2)C1)c1ccc(CNC[C@H](O)c2ccc(O)c3[nH]c(=O)ccc23)cc1` [Compound 72, (1-benzylpiperidin-4-yl)methyl (S)-2-hydroxy-2-(3-(2-((S)-3-(4-((((R)-2-hydroxy-2-(8-hydroxy-2-oxo-1,2-dihydroquinolin-5-yl)ethyl)amino)methyl)benzamido)piperidin-1-yl)-2-oxoethoxy)phenyl)-2-phenylacetate], the IC50 was 0.3 to 3 nM in test [1] and greater than 3 nM in test [2].

Consider `O=C(COc1cccc([C@](O)(C(=O)OCC2CCN(Cc3ccccc3)CC2)c2ccccc2)c1)N[C@H]1C[C@H](NC(=O)c2ccc(CNC[C@H](O)c3ccc(O)c4[nH]c(=O)ccc34)cc2Br)C1` [Compound 136, (1-benzylpiperidin-4-yl)methyl (S)-2-(3-(2-(((1R,3S)-3-(2-bromo-4-((((R)-2-hydroxy-2-(8-hydroxy-2-oxo-1,2-dihydroquinolin-5-yl)ethyl)amino)methyl)benzamido)cyclobutyl)amino)-2-oxoethoxy)phenyl)-2-hydroxy-2-phenylacetate], for which the IC50 in test [1] was 0.3 to 3 nM; in test [2], less than 0.3 nM.

Turning to `O=C(COc1cccc([C@](O)(C(=O)OCC2CCN(Cc3ccccc3)CC2)c2ccccc2)c1)N1CCCC2(CCN(C(=O)c3ccc(CCNC[C@H](O)c4ccc(O)c5[nH]c(=O)ccc45)cc3)CC2)C1` [Compound 99, (1-benzylpiperidin-4-yl)methyl (S)-2-hydroxy-2-(3-(2-(9-(4-(2-(((R)-2-hydroxy-2-(8-hydroxy-2-oxo-1,2-dihydroquinolin-5-yl)ethyl)amino)ethyl)benzoyl)-2,9-diazaspiro[5.5]undecan-2-yl)-2-oxoethoxy)phenyl)-2-phenylacetate], the IC50 in test [1] and in test [2] was 0.3 to 3 nM throughout.

In the case of `O=C(NC1CN(C(=O)COc2cccc([C@](O)(C(=O)OCC3CCN(Cc4ccccc4)CC3)c3ccccc3)c2)C1)c1ccc(CNC[C@H](O)c2ccc(O)c3[nH]c(=O)ccc23)cc1` [Compound 67, (1-benzylpiperidin-4-yl)methyl (S)-2-hydroxy-2-(3-(2-(3-(4-((((R)-2-hydroxy-2-(8-hydroxy-2-oxo-1,2-dihydroquinolin-5-yl)ethyl)amino)methyl)benzamido)azetidin-1-yl)-2-oxoethoxy)phenyl)-2-phenylacetate], the IC50 in test [1] and in test [2] was less than 0.3 nM in each case.

As for `O=C(COc1cccc([C@](O)(C(=O)OCC2CCN(Cc3ccccc3)CC2)c2ccccc2)c1)N[C@H]1CCN(C(=O)c2ccc(CCNC[C@H](O)c3ccc(O)c4[nH]c(=O)ccc34)cc2)C1` [Compound 107, (1-benzylpiperidin-4-yl)methyl (S)-2-hydroxy-2-(3-(2-(((S)-1-(4-(2-(((R)-2-hydroxy-2-(8-hydroxy-2-oxo-1,2-dihydroquinolin-5-yl)ethyl)amino)ethyl)benzoyl)pyrrolidin-3-yl)amino)-2-oxoethoxy)phenyl)-2-phenylacetate], the IC50 in test [1] was 0.3 to 3 nM; in test [2], less than 0.3 nM.

For the compound `O=C(OCC1CCN(Cc2ccccc2)CC1)[C@](O)(c1ccccc1)c1cccc(OCC2CCN(C(=O)[C@H]3CC[C@H](C(=O)N4CCC(CNC[C@H](O)c5ccc(O)c6[nH]c(=O)ccc56)CC4)CC3)CC2)c1` [Compound 157, (1-benzylpiperidin-4-yl)methyl (S)-2-hydroxy-2-(3-((1-((1R,4S)-4-(4-((((R)-2-hydroxy-2-(8-hydroxy-2-oxo-1,2-dihydroquinolin-5-yl)ethyl)amino)methyl)piperidine-1-carbonyl)cyclohexane-1-carbonyl)piperidin-4-yl)methoxy)phenyl)-2-phenylacetate], the IC50 is 0.3 to 3 nM in test [1] and greater than 3 nM in test [2].

As for `O=C(COc1cccc([C@](O)(C(=O)OCC2CCN(Cc3ccccc3)CC2)c2ccccc2)c1)N1CC(C(=O)N2CCC(CNC[C@H](O)c3ccc(O)c4[nH]c(=O)ccc34)CC2)C1` [Compound 147, (1-Benzylpiperidin-4-yl)methyl (S)-2-hydroxy-2-(3-(2-(3-(4-((((R)-2-hydroxy-2-(8-hydroxy-2-oxo-1,2-dihydroquinolin-5-yl)ethyl)amino)methyl)piperidine-1-carbonyl)azetidin-1-yl)-2-oxoethoxy)phenyl)-2-phenylacetate], the IC50 in test [1] is 0.3 to 3 nM; in test [2] it was less than 0.3 nM.

For `COc1cc(C(=O)NCCNC(=O)c2ccc(COc3cccc([C@](O)(C(=O)OCC4CCN(Cc5ccccc5)CC4)c4ccccc4)c3)cc2)ccc1CNC[C@H](O)c1ccc(O)c2[nH]c(=O)ccc12` [Compound 126, (1-benzylpiperidin-4-yl)methyl (S)-2-hydroxy-2-(3-((4-((2-(4-((((R)-2-hydroxy-2-(8-hydroxy-2-oxo-1,2-dihydroquinolin-5-yl)ethyl)amino)methyl)-3-methoxybenzamido)ethyl)carbamoyl)benzyl)oxy)phenyl)-2-phenylacetate], the IC50 in test [1] and in test [2] was 0.3 to 3 nM throughout.

As for `O=C(NCCCOc1cccc([C@](O)(C(=O)OCC2CCN(Cc3ccccc3)CC2)c2ccccc2)c1)c1ccc(CNC[C@H](O)c2ccc(O)c3[nH]c(=O)ccc23)nc1` [Compound 32C, (S)-(1-benzylpiperidin-4-yl)methyl 2-hydroxy-2-(3-(3-(6-((((R)-2-hydroxy-2-(8-hydroxy-2-oxo-1,2-dihydroquinolin-5-yl)ethyl)amino)methyl)nicotinamido)propoxy)phenyl)-2-phenylacetate], the IC50 in test [1] was 0.3 to 3 nM; in test [2], less than 0.3 nM.

As for `O=C(NCCCNC(=O)c1cccc(C(O)(C(=O)OCC2CCN(Cc3ccccc3)CC2)c2ccccc2)c1)c1ccc(CNC[C@H](O)c2ccc(O)c3[nH]c(=O)ccc23)cc1` (stereo partly drawn) [Compound 50, (1-benzylpiperidin-4-yl)methyl 2-hydroxy-2-(3-((3-(4-((((R)-2-hydroxy-2-(8-hydroxy-2-oxo-1,2-dihydroquinolin-5-yl)ethyl)amino)methyl)benzamido)propyl)-carbamoyl)phenyl)-2-phenylacetate diformate], the IC50 in test [1] is 0.3 to 3 nM; in test [2] it was greater than 3 nM.

On to `O=C(COc1cccc([C@](O)(C(=O)OCC2CCN(Cc3ccccc3)CC2)c2ccccc2)c1)N[C@@H]1CCCN(C(=O)c2ccc(CCNC[C@H](O)c3ccc(O)c4[nH]c(=O)ccc34)cc2)C1` [Compound 105, (1-benzylpiperidin-4-yl)methyl (S)-2-hydroxy-2-(3-(2-(((R)-1-(4-(2-(((R)-2-hydroxy-2-(8-hydroxy-2-oxo-1,2-dihydroquinolin-5-yl)ethyl)amino)ethyl)benzoyl)piperidin-3-yl)amino)-2-oxoethoxy)phenyl)-2-phenylacetate], for which the IC50 in test [1] and in test [2] was 0.3 to 3 nM in each case.

For `O=C(c1ccc(CCNC[C@H](O)c2ccc(O)c3[nH]c(=O)ccc23)cc1)N1CCC2(CC1)CN(C(=O)c1ccc(COc3cccc([C@](O)(C(=O)OCC4CCN(Cc5ccccc5)CC4)c4ccccc4)c3)cc1)CCO2` [Compound 121, (1-benzylpiperidin-4-yl)methyl (S)-2-hydroxy-2-(3-((4-(9-(4-(2-(((R)-2-hydroxy-2-(8-hydroxy-2-oxo-1,2-dihydroquinolin-5-yl)ethyl)amino)ethyl)benzoyl)-1-oxa-4,9-diazaspiro[5.5]undecane-4-carbonyl)benzyl)oxy)phenyl)-2-phenylacetate], the IC50 in test [1] and in test [2] was less than 0.3 nM each time.

With `O=C(COc1cccc([C@](O)(C(=O)OCC2CCN(Cc3ccccc3)CC2)c2ccccc2)c1)N[C@H]1C[C@H](NC(=O)c2ccc(CNC[C@H](O)c3ccc(O)c4[nH]c(=O)ccc34)c(F)c2F)C1` [Compound 134, (1-benzylpiperidin-4-yl)methyl (S)-2-(3-(2-(((1R,3S)-3-(2,3-difluoro-4-((((R)-2-hydroxy-2-(8-hydroxy-2-oxo-1,2-dihydroquinolin-5-yl)ethyl)amino)methyl)benzamido)cyclobutyl)amino)-2-oxoethoxy)phenyl)-2-hydroxy-2-phenylacetate], the values for the IC50 in test [1] and in test [2] were 0.3 to 3 nM and less than 0.3 nM, respectively.

For the compound `O=C(NCCCCNC[C@H](O)c1ccc(O)c2[nH]c(=O)ccc12)c1cccc(C(O)(C(=O)OCC2CCN(Cc3ccccc3)CC2)c2ccccc2)c1` (stereo partly drawn) [Compound 47, (1-benzylpiperidin-4-yl)methyl 2-hydroxy-2-(3-((4-(((R)-2-hydroxy-2-(8-hydroxy-2-oxo-1,2-dihydroquinolin-5-yl)ethyl)amino)butyl)carbamoyl)phenyl)-2-phenylacetate diformate], the IC50 in test [1] is 0.3 to 3 nM; in test [2], less than 0.3 nM.

Consider `O=C(COc1cccc([C@](O)(C(=O)OCC2CCN(Cc3ccccc3)CC2)c2ccccc2)c1)N1CCOC2(CCN(C(=O)c3ccc(CCNC[C@H](O)c4ccc(O)c5[nH]c(=O)ccc45)cc3)CC2)C1` [Compound 100, (1-benzylpiperidin-4-yl)methyl (S)-2-hydroxy-2-(3-(2-(9-(4-(2-(((R)-2-hydroxy-2-(8-hydroxy-2-oxo-1,2-dihydroquinolin-5-yl)ethyl)amino)ethyl)benzoyl)-1-oxa-4,9-diazaspiro[5.5]undecan-4-yl)-2-oxoethoxy)phenyl)-2-phenylacetate], for which the IC50 was less than 0.3 nM in test [1] and 0.3 to 3 nM in test [2].
